From paper PMC10801920 (Proceedings of the National Academy of Sciences of the …, 2024)

How the values were obtained:
[1] = molecular target: T1, CtSpartinL (Thermochaetoides thermophila, UniProt G0S883); assay: FRET-based lipid transfer between tethered liposomes; assay type: biochemical; conditions: 30 C, pH 8.0; labelled compound
T1 sequence (G0S883 7-480): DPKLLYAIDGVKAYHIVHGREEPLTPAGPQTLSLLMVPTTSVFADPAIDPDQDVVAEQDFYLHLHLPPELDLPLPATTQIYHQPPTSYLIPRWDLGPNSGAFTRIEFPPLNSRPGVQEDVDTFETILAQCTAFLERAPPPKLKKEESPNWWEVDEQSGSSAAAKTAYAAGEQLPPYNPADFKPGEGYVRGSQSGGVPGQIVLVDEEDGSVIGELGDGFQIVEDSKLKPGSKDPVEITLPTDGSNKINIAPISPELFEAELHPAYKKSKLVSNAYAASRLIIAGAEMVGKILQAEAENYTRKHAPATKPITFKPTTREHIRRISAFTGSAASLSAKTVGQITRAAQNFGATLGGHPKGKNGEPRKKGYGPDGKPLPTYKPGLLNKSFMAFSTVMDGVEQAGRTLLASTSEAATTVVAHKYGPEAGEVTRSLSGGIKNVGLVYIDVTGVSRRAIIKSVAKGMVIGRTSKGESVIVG

[2] = molecular target: T2, CtSpartinLSD (Thermochaetoides thermophila, UniProt G0S883); assay: native gel comigration; assay type: binding; conditions: on ice, 2 h; labelled compound; also transferred between liposomes
T2 sequence (G0S883 186-480): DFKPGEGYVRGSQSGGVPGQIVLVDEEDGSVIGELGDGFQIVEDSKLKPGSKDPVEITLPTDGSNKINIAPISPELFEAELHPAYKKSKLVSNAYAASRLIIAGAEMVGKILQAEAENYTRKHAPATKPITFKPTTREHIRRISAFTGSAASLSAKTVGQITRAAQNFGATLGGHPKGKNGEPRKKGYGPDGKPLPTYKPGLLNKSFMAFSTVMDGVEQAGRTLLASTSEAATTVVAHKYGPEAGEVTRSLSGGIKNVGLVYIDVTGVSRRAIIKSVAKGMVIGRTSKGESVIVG

[3] = molecular target: T3, CeSpartin (Caenorhabditis elegans, UniProt O44735); assay: FRET-based lipid transfer between tethered liposomes; assay type: biochemical; conditions: 30 C, pH 8.0, labelled compound
T3 sequence (O44735 1-476): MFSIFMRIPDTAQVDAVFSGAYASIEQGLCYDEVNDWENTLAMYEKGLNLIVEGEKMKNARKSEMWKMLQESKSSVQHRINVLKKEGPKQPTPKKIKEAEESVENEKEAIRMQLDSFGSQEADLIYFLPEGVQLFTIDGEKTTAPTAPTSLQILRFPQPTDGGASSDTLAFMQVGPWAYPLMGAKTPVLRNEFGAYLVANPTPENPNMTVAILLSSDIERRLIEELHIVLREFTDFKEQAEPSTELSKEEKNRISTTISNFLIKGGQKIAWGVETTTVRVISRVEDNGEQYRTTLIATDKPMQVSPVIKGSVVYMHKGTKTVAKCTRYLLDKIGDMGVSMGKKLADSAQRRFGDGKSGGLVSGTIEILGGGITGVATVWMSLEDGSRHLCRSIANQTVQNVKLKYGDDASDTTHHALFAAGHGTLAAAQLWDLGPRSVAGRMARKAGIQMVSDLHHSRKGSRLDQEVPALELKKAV

[4] = molecular target: C. elegans spartin (CeSpartin) (C. elegans); assay: native gel or EMSA
[5] = molecular target: spartin-like protein from Chaetomium thermophilum (CtSpartinL), residues 7-480 (Chaetomium thermophilum); assay: native gel or EMSA
[6] = molecular target: the molecule itself; assay: native gel or EMSA

CCCCCCCCCCCCCCCC(=O)OC[C@H](COP(=O)([O-])OCC[N+](C)(C)C)OC(=O)CCCCCNc1ccc([N+](=O)[O-])c2nonc12 [NBD-PC, 1-palmitoyl-2-{6-[(7-nitro-2-1,3-benzoxadiazol-4-yl)amino]hexanoyl}-sn-glycero-3-phosphocholine]
FRET-based lipid transfer between tethered liposomes [1]: addition of CeSpartin, HsSpartin or CtSpartinL to the liposomes all result in increased NBD fluorescence | native gel comigration [2]: senescence domain fragment comigrates with NBD-PC on native gels | FRET-based lipid transfer between tethered liposomes [3]: we observed fluorescence increases consistent with NBD-PC or NBD-PE transfer

CCCCCCCCCCCCCCCC(=O)OC[C@H](COP(=O)(O)OCCN)OC(=O)CCCCCNc1ccc([N+](=O)[O-])c2nonc12 [NBD-PE, 1-palmitoyl-2-{6-[(7-nitro-2-1,3-benzoxadiazol-4-yl)amino]hexanoyl}-sn-glycero-3-phosphoethanolamine]
FRET-based lipid transfer between tethered liposomes ([3]; less robust than NBD-PC): we observed fluorescence increases consistent with NBD-PC or NBD-PE transfer

C. elegans spartin (CeSpartin) (natural protein)
stoichiometry N [4]: 3

spartin-like protein from Chaetomium thermophilum (CtSpartinL), residues 7-480 (natural protein)
stoichiometry N [5]: 3

B1: human spartin (HsSpartin) (natural protein, UniProt Q8N0X7 1-666, looked up)
chain: MEQEPQNGEPAEIKIIREAYKKAFLFVNKGLNTDELGQKEEAKNYYKQGIGHLLRGISISSKESEHTGPGWESARQMQQKMKETLQNVRTRLEILEKGLATSLQNDLQEVPKLYPEFPPKDMCEKLPEPQSFSSAPQHAEVNGNTSTPSAGAVAAPASLSLPSQSCPAEAPPAYTPQAAEGHYTVSYGTDSGEFSSVGEEFYRNHSQPPPLETLGLDADELILIPNGVQIFFVNPAGEVSAPSYPGYLRIVRFLDNSLDTVLNRPPGFLQVCDWLYPLVPDRSPVLKCTAGAYMFPDTMLQAAGCFVGVVLSSELPEDDRELFEDLLRQMSDLRLQANWNRAEEENEFQIPGRTRPSSDQLKEASGTDVKQLDQGNKDVRHKGKRGKRAKDTSSEEVNLSHIVPCEPVPEEKPKELPEWSEKVAHNILSGASWVSWGLVKGAEITGKAIQKGASKLRERIQPEEKPVEVSPAVTKGLYIAKQATGGAAKVSQFLVDGVCTVANCVGKELAPHVKKHGSKLVPESLKKDKDGKSPLDGAMVVAASSVQGFSTVWQGLECAAKCIVNNVSAETVQTVRYKYGYNAGEATHHAVDSAVNVGVTAYNINNIGIKAMVKKTATQTGHTLLEDYQIVDNSQRENQEGAANVNVRGEKDEQTKEVKEAKKKDK
stoichiometry N [6]: ~3
